Measurements: paper PMC9286623

Assay: head-to-tail macrolactamisation of side-chain-protected linear peptides (crude from 2-ClTrt resin, TFE cleavage); DEPBT (2-2.5 equiv), NEt3 (10-12 equiv), 24 h; AcOH quench, prep HPLC
Conditions: MeCN with <1-10% DMSO (3i: 5% DMF in MeCN), 2.0 mM, 25.0 °C

CC[C@H](C)[C@@H]1NC(=O)[C@H](COC(C)(C)C)NC(=O)[C@H](CCCCNC(=O)OC(C)(C)C)NC(=O)[C@H](Cc2ccccc2)NC(=O)[C@@H]2CCCN2C(=O)[C@H](CCCCNC(=O)OC(C)(C)C)NC(=O)[C@H](CSC(c2ccccc2)(c2ccccc2)c2ccccc2)NC(=O)[C@H](CCCCNC(=O)OC(C)(C)C)NC1=O
ring closure, isolated yield (from CC[C@H](C)[C@H](NC(=O)[C@H](COC(C)(C)C)NC(=O)[C@H](CCCCNC(=O)OC(C)(C)C)NC(=O)[C@H](Cc1ccccc1)NC(=O)[C@@H]1CCCN1C(=O)[C@H](CCCCNC(=O)OC(C)(C)C)NC(=O)[C@H](CSC(c1ccccc1)(c1ccccc1)c1ccccc1)NC(=O)[C@@H](N)CCCCNC(=O)OC(C)(C)C)C(=O)O, 24-membered ring, 24.0 h): 22%

CC[C@H](C)[C@@H]1NC(=O)[C@H](CSC(c2ccccc2)(c2ccccc2)c2ccccc2)NC(=O)[C@@H]2CCCN2C(=O)[C@H](CCCCNC(=O)OC(C)(C)C)NC(=O)[C@H](COC(C)(C)C)NC(=O)[C@H](CCCCNC(=O)OC(C)(C)C)NC(=O)[C@H](CCCCNC(=O)OC(C)(C)C)NC(=O)[C@H](Cc2ccccc2)NC1=O
ring closure, isolated yield (from CC[C@H](C)[C@H](NC(=O)[C@H](CSC(c1ccccc1)(c1ccccc1)c1ccccc1)NC(=O)[C@@H]1CCCN1C(=O)[C@H](CCCCNC(=O)OC(C)(C)C)NC(=O)[C@H](COC(C)(C)C)NC(=O)[C@@H](N)CCCCNC(=O)OC(C)(C)C)C(=O)N[C@@H](Cc1ccccc1)C(=O)N[C@@H](CCCCNC(=O)OC(C)(C)C)C(=O)O, 24-membered ring, 24.0 h): 36%

Cc1c(C)c(S(=O)(=O)NC(=N)NCCC[C@@H]2NC(=O)[C@H](C)NC(=O)[C@H](Cc3cn(C(=O)OC(C)(C)C)c4ccccc34)NC(=O)[C@H]([C@@H](C)OC(C)(C)C)NC(=O)[C@H](C)NC2=O)c(C)c2c1OC(C)(C)C2 [H-Arg(Pbf)-Ala-Thr(tBu)-Trp(Boc)-Ala-OH]
ring closure, isolated yield (from Cc1c(C)c(S(=O)(=O)NC(=N)NCCC[C@H](N)C(=O)N[C@@H](C)C(=O)N[C@H](C(=O)N[C@@H](Cc2cn(C(=O)OC(C)(C)C)c3ccccc23)C(=O)N[C@@H](C)C(=O)O)[C@@H](C)OC(C)(C)C)c(C)c2c1OC(C)(C)C2, 15-membered ring, 24.0 h): 27%

Cc1c(C)c(S(=O)(=O)NC(=N)NCCC[C@@H]2NC(=O)[C@H](C)NC(=O)[C@H](C)NC(=O)[C@H]([C@@H](C)OC(C)(C)C)NC(=O)[C@H](CSC(c3ccccc3)(c3ccccc3)c3ccccc3)NC2=O)c(C)c2c1OC(C)(C)C2 [H-Arg(Pbf)-Cys(Trt)-Thr(tBu)-Ala-Ala-OH]
ring closure, isolated yield (from Cc1c(C)c(S(=O)(=O)NC(=N)NCCC[C@H](N)C(=O)N[C@@H](CSC(c2ccccc2)(c2ccccc2)c2ccccc2)C(=O)N[C@H](C(=O)N[C@@H](C)C(=O)N[C@@H](C)C(=O)O)[C@@H](C)OC(C)(C)C)c(C)c2c1OC(C)(C)C2, 15-membered ring, 24.0 h): 21%

Cc1c(C)c(S(=O)(=O)NC(=N)NCCC[C@@H]2NC(=O)[C@H](C)NC(=O)[C@H](CSC(c3ccccc3)(c3ccccc3)c3ccccc3)NC(=O)[C@H]([C@@H](C)OC(C)(C)C)NC(=O)[C@H](CSC(c3ccccc3)(c3ccccc3)c3ccccc3)NC2=O)c(C)c2c1OC(C)(C)C2 [H-Arg(Pbf)-Cys(Trt)-Thr(tBu)-Cys(Trt)-Ala-OH]
ring closure, isolated yield (from Cc1c(C)c(S(=O)(=O)NC(=N)NCCC[C@H](N)C(=O)N[C@@H](CSC(c2ccccc2)(c2ccccc2)c2ccccc2)C(=O)N[C@H](C(=O)N[C@@H](CSC(c2ccccc2)(c2ccccc2)c2ccccc2)C(=O)N[C@@H](C)C(=O)O)[C@@H](C)OC(C)(C)C)c(C)c2c1OC(C)(C)C2, 15-membered ring, 24.0 h): 16%

Cc1c(C)c(S(=O)(=O)NC(=N)NCCC[C@@H]2NC(=O)[C@H](C)NC(=O)[C@H](Cc3cn(C(=O)OC(C)(C)C)c4ccccc34)NC(=O)[C@H]([C@@H](C)OC(C)(C)C)NC(=O)[C@H](CSC(c3ccccc3)(c3ccccc3)c3ccccc3)NC2=O)c(C)c2c1OC(C)(C)C2 [H-Arg(Pbf)-Cys(Trt)-Thr(tBu)-Trp(Boc)-Ala-OH]
ring closure, isolated yield (from Cc1c(C)c(S(=O)(=O)NC(=N)NCCC[C@H](N)C(=O)N[C@@H](CSC(c2ccccc2)(c2ccccc2)c2ccccc2)C(=O)N[C@H](C(=O)N[C@@H](Cc2cn(C(=O)OC(C)(C)C)c3ccccc23)C(=O)N[C@@H](C)C(=O)O)[C@@H](C)OC(C)(C)C)c(C)c2c1OC(C)(C)C2, 15-membered ring, 24.0 h): 16%

Cc1c(C)c(S(=O)(=O)NC(=N)NCCC[C@@H]2NC(=O)[C@H](C)NC(=O)[C@H](Cc3cn(C(=O)OC(C)(C)C)c4ccccc34)NC(=O)[C@H]([C@@H](C)OC(C)(C)C)NC(=O)[C@@H]3CCCN3C2=O)c(C)c2c1OC(C)(C)C2 [H-Arg(Pbf)-Pro-Thr(tBu)-Trp(Boc)-Ala-OH]
ring closure, isolated yield (from Cc1c(C)c(S(=O)(=O)NC(=N)NCCC[C@H](N)C(=O)N2CCC[C@H]2C(=O)N[C@H](C(=O)N[C@@H](Cc2cn(C(=O)OC(C)(C)C)c3ccccc23)C(=O)N[C@@H](C)C(=O)O)[C@@H](C)OC(C)(C)C)c(C)c2c1OC(C)(C)C2, 15-membered ring, 24.0 h): 0%

CC[C@H](C)[C@@H]1NC(=O)[C@@H]2CCCN2C(=O)[C@H](CCCCNC(=O)OC(C)(C)C)NC(=O)[C@H](CSC(c2ccccc2)(c2ccccc2)c2ccccc2)NC(=O)[C@H](Cc2cn(C(=O)OC(C)(C)C)c3ccccc23)NC(=O)[C@H]([C@@H](C)OC(C)(C)C)NC(=O)[C@@H]2CCCN2C1=O [H-Cys(Trt)-Lys(Boc)-Pro-Ile-Pro-Thr(tBu)-Trp(Boc)-OH]
ring closure, isolated yield (from CC[C@H](C)[C@H](NC(=O)[C@@H]1CCCN1C(=O)[C@H](CCCCNC(=O)OC(C)(C)C)NC(=O)[C@@H](N)CSC(c1ccccc1)(c1ccccc1)c1ccccc1)C(=O)N1CCC[C@H]1C(=O)N[C@H](C(=O)N[C@@H](Cc1cn(C(=O)OC(C)(C)C)c2ccccc12)C(=O)O)[C@@H](C)OC(C)(C)C, 21-membered ring): 0%

CC(C)C[C@@H]1NC(=O)[C@H](CC(C)C)NC(=O)[C@H](CC(=O)NC(c2ccccc2)(c2ccccc2)c2ccccc2)NC(=O)[C@@H]2CCCN2C(=O)[C@@H]2CCCN2C(=O)[C@H](CSC(c2ccccc2)(c2ccccc2)c2ccccc2)NC(=O)[C@H](CC(C)C)NC(=O)[C@H](CCC(=O)OC(C)(C)C)NC1=O [H-Glu(OtBu)-Leu-Cys(Trt)-Pro-Pro-Asn(Trt)-Leu-Leu-OH]
ring closure, isolated yield (from CC(C)C[C@H](NC(=O)[C@H](CC(C)C)NC(=O)[C@H](CC(=O)NC(c1ccccc1)(c1ccccc1)c1ccccc1)NC(=O)[C@@H]1CCCN1C(=O)[C@@H]1CCCN1C(=O)[C@H](CSC(c1ccccc1)(c1ccccc1)c1ccccc1)NC(=O)[C@H](CC(C)C)NC(=O)[C@@H](N)CCC(=O)OC(C)(C)C)C(=O)O, 24-membered ring, 24.0 h): 26%

CC(C)C[C@@H]1NC(=O)[C@H](CSC(c2ccccc2)(c2ccccc2)c2ccccc2)NC(=O)[C@H](CC(C)C)NC(=O)[C@@H]2CCCN2C(=O)[C@H](CC(=O)NC(c2ccccc2)(c2ccccc2)c2ccccc2)NC(=O)[C@H](CC(C)C)NC(=O)[C@@H]2CCCN2C(=O)[C@H](CCC(=O)OC(C)(C)C)NC1=O [H-Leu-Glu(OtBu)-Pro-Leu-Asn(Trt)-Pro-Leu-Cys(Trt)-OH]
ring closure, isolated yield (from CC(C)C[C@H](NC(=O)[C@@H]1CCCN1C(=O)[C@H](CC(=O)NC(c1ccccc1)(c1ccccc1)c1ccccc1)NC(=O)[C@H](CC(C)C)NC(=O)[C@@H]1CCCN1C(=O)[C@H](CCC(=O)OC(C)(C)C)NC(=O)[C@@H](N)CC(C)C)C(=O)N[C@@H](CSC(c1ccccc1)(c1ccccc1)c1ccccc1)C(=O)O, 24-membered ring, 24.0 h): 23%

CC[C@H](C)[C@@H]1NC(=O)[C@@H]2CCCN2C(=O)[C@H](CCCCNC(=O)OC(C)(C)C)NC(=O)[C@H](CSC(c2ccccc2)(c2ccccc2)c2ccccc2)NC(=O)[C@H](Cc2cn(C(=O)OC(C)(C)C)c3ccccc23)NC(=O)[C@H]([C@@H](C)OC(C)(C)C)NC(=O)[C@@H]2CCCN2C1=O [H-Lys(Boc)-Pro-Ile-Pro-Thr(tBu)-Trp(Boc)-Cys(Trt)-OH]
ring closure, isolated yield (from CC[C@H](C)[C@H](NC(=O)[C@@H]1CCCN1C(=O)[C@@H](N)CCCCNC(=O)OC(C)(C)C)C(=O)N1CCC[C@H]1C(=O)N[C@H](C(=O)N[C@@H](Cc1cn(C(=O)OC(C)(C)C)c2ccccc12)C(=O)N[C@@H](CSC(c1ccccc1)(c1ccccc1)c1ccccc1)C(=O)O)[C@@H](C)OC(C)(C)C, 21-membered ring): 0%

CC[C@H](C)[C@@H]1NC(=O)[C@H](Cc2cn(C(=O)OC(C)(C)C)c3ccccc23)NC(=O)[C@@H]2CCCN2C(=O)[C@H](CSC(c2ccccc2)(c2ccccc2)c2ccccc2)NC(=O)[C@@H]2CCCN2C(=O)[C@H](CCCCNC(=O)OC(C)(C)C)NC(=O)[C@H]([C@@H](C)OC(C)(C)C)NC1=O [H-Thr(tBu)-Lys(Boc)-Pro-Cys(Trt)-Pro-Trp(Boc)-Ile-OH]
ring closure, isolated yield (from CC[C@H](C)[C@H](NC(=O)[C@H](Cc1cn(C(=O)OC(C)(C)C)c2ccccc12)NC(=O)[C@@H]1CCCN1C(=O)[C@H](CSC(c1ccccc1)(c1ccccc1)c1ccccc1)NC(=O)[C@@H]1CCCN1C(=O)[C@H](CCCCNC(=O)OC(C)(C)C)NC(=O)[C@@H](N)[C@@H](C)OC(C)(C)C)C(=O)O, 21-membered ring, 24.0 h): 29%

CC[C@H](C)[C@@H]1NC(=O)[C@@H]2CCCN2C(=O)[C@H](CCCCNC(=O)OC(C)(C)C)NC(=O)[C@H](CSC(c2ccccc2)(c2ccccc2)c2ccccc2)NC(=O)[C@H](Cc2cn(C(=O)OC(C)(C)C)c3ccccc23)NC(=O)[C@H]([C@@H](C)OC(C)(C)C)NC(=O)[C@@H]2CCCN2C1=O [H-Trp(Boc)-Cys(Trt)-Lys(Boc)-Pro-Ile-Pro-Thr(tBu)-OH]
ring closure, isolated yield (from CC[C@H](C)[C@H](NC(=O)[C@@H]1CCCN1C(=O)[C@H](CCCCNC(=O)OC(C)(C)C)NC(=O)[C@H](CSC(c1ccccc1)(c1ccccc1)c1ccccc1)NC(=O)[C@@H](N)Cc1cn(C(=O)OC(C)(C)C)c2ccccc12)C(=O)N1CCC[C@H]1C(=O)N[C@H](C(=O)O)[C@@H](C)OC(C)(C)C, 21-membered ring, 24.0 h): 12%
